Source: PubChem BioAssay (NCI)
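Values below derive from 48-hour exposures of cells grown in 96-well plates, with endpoints linearly interpolated between the two concentrations bracketing the appropriate inhibition level. Definition used: TGI = concentration required for complete inhibition of growth.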 Where a SMILES comes first, the peptide text is derived from it. [ ]: non-standard residue; d: D form. The star is where a group is joined. Tyr(3-Br) = N[C@@H](Cc1ccc(O)c(Br)c1)C(=O)O; Boc = CC(C)(C)OC(=O)*

Tests used:
Assay in all cases: DTP human tumour cell line panel, 48 h
EKVX NSCLC = test system: EKVX NSCLC
COLO 205 colon = test system: COLO 205 colon
SK-OV-3 ovarian = test system: SK-OV-3 ovarian
HOP-62 NSCLC = test system: HOP-62 NSCLC
786-0 renal = test system: 786-0 renal
SF-295 CNS = test system: SF-295 CNS
SF-268 CNS = test system: SF-268 CNS
A549 NSCLC = test system: A549 NSCLC
SN12C renal = test system: SN12C renal
UACC-257 melanoma = test system: UACC-257 melanoma
UACC-62 melanoma = test system: UACC-62 melanoma

Compound	TGI (EKVX NSCLC) [µM]	TGI (COLO 205 colon) [µM]	TGI (SK-OV-3 ovarian) [µM]	TGI (HOP-62 NSCLC) [µM]	TGI (786-0 renal) [µM]	TGI (SF-295 CNS) [µM]	TGI (SF-268 CNS) [µM]	TGI (A549 NSCLC) [µM]	TGI (SN12C renal) [µM]	TGI (UACC-257 melanoma) [µM]	TGI (UACC-62 melanoma) [µM]
O=C(Cc1csc(-c2nc(CC(=O)NNc3ccccc3)cs2)n1)NNc1ccccc1	> 100	64	> 100	> 100	> 100	> 100	> 100	> 100	> 100	> 100	> 100
CCOC(=O)c1nc2ccccc2nc1Nc1ccc(OC)c(OC)c1	> 100	> 100	> 100	> 100	> 100	> 100	> 100	> 100	> 100		> 100
COC(=O)C1c2c(c3ccccc3n2C(=O)OC)CCN2CCC1C(S(=O)(=O)c1ccccc1)C2=O (stereo not given)	> 100	> 100	> 100	> 100	> 100	> 100	> 100	> 100	> 100	> 100	> 100
C=C(C)C1CC/C(C)=C/CC[C@]2(C)O[C@H]2CC/C(COC(C)=O)=C\[C@@H]1O (stereo not given in full)	> 50	> 50	> 50	> 50	> 50	> 50	> 50	> 50	> 50	> 50	> 50
CCCCOC(=O)NC(Nc1cccc(C(F)(F)F)c1)(C(F)(F)F)C(F)(F)F	> 100	> 100		> 100	> 100	> 100	> 100	> 100	> 100	> 100	> 100
CC1(C)CC(=O)C2=C(C1)NC1=C(C(=O)CC(C)(C)C1)C2c1ccc([N+](=O)[O-])cc1	> 100	> 100	> 100	> 100	> 100	> 100	> 100	> 100	> 100	> 100	> 100
COP(=O)(Cc1ccccc1)Cc1ccccc1	> 100	> 100	> 100	> 100	> 100	> 100	> 100	> 100	> 100	> 100	> 100
Cc1cc(-c2nc3ccccc3s2)ccc1N	> 95.3	> 76.9	> 100	> 100	> 79.6	> 85.3	> 83.8	> 100	> 77.9	> 100	> 74.3
COc1cc(C)cc2c1c(=O)c1ccccc1n2C	> 100	79.1	> 100	> 100	> 100	45.3	> 100	> 100	> 100	> 100	62.5
CS(=O)(=O)c1c(N)c2nc(Cl)cn2c2nc3ccccc3nc12	> 100	> 100	> 100	> 100	> 100	> 100	> 100	> 100	> 100	> 100	> 100
COc1cc(C=C2C(C)=NN(c3cccc(Cl)c3)C23C(Cl)C(=O)N3c2nc3ccccc3s2)ccc1O (stereo not given)	> 100		59.5	69.1	43.7	> 100	16			73.1	
CCOC(=O)Cc1csc2[n+]1C(=O)/C(=C/c1cccc(OC)c1O)S2	> 100	> 100	> 100	> 100	> 100	> 100		> 100	> 100	> 100	> 100
Cc1oc(N)c(S(=O)(=O)c2ccc(Cl)cc2)c1C	> 100		> 100		> 100	> 100	> 100	> 100		> 100	> 100
O=C1CC(=O)NC(=NN2C(=O)/C(=C/c3ccccc3)N=C2c2ccccc2)N1		> 100	> 100	> 100	> 100	> 100	> 100	> 100	> 100	> 100	96.5
CC(=O)c1ccc2c(ccc(=O)n2C)c1	> 100	> 100	> 100	> 100	> 100	> 100	> 100	> 100	> 100		> 100
Brc1c(C#CCC(c2ccccc2)(c2ccccc2)c2ccccc2)ccc(C#CCC(c2ccccc2)(c2ccccc2)c2ccccc2)c1Br	> 100	> 100	> 100		> 100	> 100	> 100	> 100	> 100	> 100	> 100
Cc1ccc(C(=O)Nc2ccc(S(=O)(=O)O)c3cc(S(=O)(=O)O)cc(S(=O)(=O)O)c23)cc1NC(=S)Nc1cc(C(=O)Nc2ccc(S(=O)(=O)O)c3cc(S(=O)(=O)O)cc(S(=O)(=O)O)c23)ccc1C				> 75	> 75		> 75	> 75	> 75	> 75	> 75
CCOP(=O)(C/C=C/Cn1nc(Br)c(=O)[nH]c1=O)OCC	> 100	> 100		> 100	> 100	> 100	> 100	> 100	> 100	> 100	> 100
c1ccc(P(CCP(c2ccccn2)c2ccccn2)c2ccccc2)cc1	9	37.8	> 100	> 100	> 100	> 56.6		> 100	> 100	> 100	> 100
C/C1=C/C(C)CC(C)OC(=O)C(C)NC(=O)C(Cc2ccc(O)c(I)c2)N(C)C(=O)C(C)NC(=O)C(C)C1 (stereo not given)				< 0.01	3.79	1.25	0.347	> 100	> 89.2	8.36	15
CCN(CC)CCNC(=O)c1ccc(I)cc1	> 100	> 100	> 100	> 100	> 100	> 100	> 100	> 100	> 100	> 100	

Compound	TGI (EKVX NSCLC) [µM]	TGI (COLO 205 colon) [µM]	TGI (SK-OV-3 ovarian) [µM]	TGI (HOP-62 NSCLC) [µM]	TGI (786-0 renal) [µM]	TGI (SF-295 CNS) [µM]	TGI (SF-268 CNS) [µM]	TGI (A549 NSCLC) [µM]	TGI (SN12C renal) [µM]	TGI (UACC-257 melanoma) [µM]	TGI (UACC-62 melanoma) [µM]
O=C(Cc1csc(N=Nc2c(O)[nH]c3ccccc23)n1)Nc1ccccc1	52.8	> 100	> 100	52.2	34.3	> 100	41.4	> 100	> 100	87.7	
C/C(=N\Nc1nc2ccccc2n1C)c1cnccn1	> 100	> 100	> 100	37	> 39.2	> 100	> 100	> 100	> 100	> 25	
NC(=O)c1coc(C2OC(CO)C(O)C2O)n1 (stereo not given)	> 100	> 100	> 100	> 100	> 100		> 100	> 100	> 100		> 100
N#CC(C#N)=C(N)/C(C#N)=C/c1ccc2ccccc2n1	> 100		> 100	33	34.2	59.6	> 100	> 100	> 100	> 100	45.9
CC(=O)Oc1cc2c(c3ncccc13)OC(C)(C)C2		35	> 100	30.6	30.3	36.1	25.9	27.4	25.9	29.5	> 100
CCOC(=O)c1c(C)cc(=O)n2c1[nH]c1ccccc12	> 100	> 100	> 100		> 100	> 100		> 100	> 100	> 100	> 100
COc1ccc(/C=C2\CCC(C)/C(=C\c3ccc(OC)c(OC)c3)C2=O)cc1OC (stereo not given)	10.2	54.2	42.3		19.4	23	45.1		36.5	21.5	23.1
Clc1ccccc1C1=NN(c2ccccc2)C2c3ccccc3OCC12 (stereo not given)	> 100	> 100	> 100	> 100	> 100	> 100	> 100	> 100		> 100	
C/C=C\C(CC(=O)NCCC1CN(S(=O)(=O)C(F)(F)F)c2ccccc21)CC(=O)OC (stereo not given)	> 100	63	> 100	> 100	> 100	> 100		> 100		> 100	> 100
NC(=O)NC(=O)c1cccc(CNc2ccc(C(=O)N[C@@H](CCC(=O)O)C(=O)O)cc2)n1	> 100	> 100	> 100		> 100	> 100	> 100	> 100	> 100	> 100	> 100
CCCCc1ccc(Nc2nc(=S)c3[nH]cnc3[nH]2)cc1		31.2			> 100	78.7	> 100	> 100	59	55.2	35.1
Cc1c2c(n(CCc3ccccc3)c1C)N(C)N=C(C#N)S2(=O)=O	> 100		> 100	> 100	> 100	> 100	> 100	> 100	> 100	> 100	> 100
CN(C)/N=C(/c1nc2ccc([N+](=O)[O-])cc2[nH]c1=O)C(O)c1ccco1 (stereo not given)		> 100	> 100	> 100	> 100	> 100	> 100	> 100	> 100	> 100	> 100
COc1ccc2c(c1)/C(=C\c1c(C)nc3sc(C)cn13)C(=O)N2	44.2		23	> 100	72.7	> 20.4	53.7	> 100	> 100	> 78.2	97.9
Oc1ccccc1C=Nc1ccc(-c2nc3ccccc3[nH]2)cc1	> 100	> 100	> 100	> 100	> 100	> 100	> 100	> 100	> 100	> 100	
Cc1ccc2c(sc(-c3ccc4c(c3)sc(-c3ccc5c(c3)sc(-c3ccc(N(C)C)cc3)[n+]5C)[n+]4C)[n+]2C)c1S(=O)(=O)O (tested in a mixture with another compound)	> 100	> 100	> 100		> 100	> 100	> 100	> 100	> 100	> 100	> 100
COC(=O)[C@H](Cc1ccc(O)c(Br)c1)NC(=O)[C@H](Cc1ccc(O)cc1)NC(=O)OC(C)(C)C (Boc-Tyr-[Tyr(3-Br)]-OMe)	> 100	> 100	> 100	> 100	> 100	> 100	> 100	> 100	> 100	> 100	
COc1cc(NC(C)=O)ccc1C(=O)NN1C(=O)C(Cl)C1c1ccco1 (stereo not given)	> 100	> 100			> 100		> 100	> 100	> 100		> 100
COc1ccc(C2Oc3cc(OC)c(O)c(C)c3[C@H]2C)cc1 (stereo not given in full)	> 100	> 100	> 100	> 100	> 100	> 100	> 100	> 100		> 100	> 100
Cc1cc(S(=O)(=O)/N=C(\[N-]S(=O)(=O)c2ccc(Cl)cc2)[n+]2ccc(N(C)C)cc2)c(S)cc1Cl	> 100		> 100	> 100	> 100	> 100	> 100			> 100	
Cc1cc(N=Nc2c(O)ccc3ccccc23)ccc1N=Nc1cccc([N+](C)(C)C)c1	62.1		> 75.3	43.2	> 92	51.9	57.1	> 52.2	> 80	> 63.5	> 61.6
